This note sets out measurements from US20250114313A1, “OLIGO-BENZAMIDE ANALOGS AND THEIR USE IN CANCER TREATMENT” (BOARD OF REGENTS, THE UNIVERSITY OF TEXAS SYSTEM, priority 2022, published 2025).

What is called IC50 is the midpoint of a concentration-inhibition curve.

The target in experiment [1] is T1, ER Alpha-LBD (GST) (Homo sapiens, UniProt P03372).
T1 construct: 3.5 nM ER Alpha-LBD (GST); purchased life technologies A15885
T1 sequence (P03372 311-547 limits assumed): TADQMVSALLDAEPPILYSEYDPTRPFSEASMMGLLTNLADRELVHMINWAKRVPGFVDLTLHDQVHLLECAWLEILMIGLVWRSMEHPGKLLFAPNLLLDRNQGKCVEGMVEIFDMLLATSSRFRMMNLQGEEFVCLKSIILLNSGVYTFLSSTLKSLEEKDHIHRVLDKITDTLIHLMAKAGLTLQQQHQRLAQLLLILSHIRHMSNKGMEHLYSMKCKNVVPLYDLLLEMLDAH
Nature of the experiment: LanthaScreen TR-FRET ER alpha Coactivator Assay, antagonist mode. Format: binding. As to conditions: 2 h incubation. Background: TR-FRET usually uses a lanthanide donor and a delayed reading to cut background.

The subject of experiment [2] is SUM-159 cells with LIPA KO. The experiment can be described thus: CellTiter-Glo, SUM-159 LIPA KO cells. As to conditions: Homo sapiens, SUM159; SUM-159 stably transfected mCherry-RAMP4, CellTiter-Glo. It counts as cell-based. As for the experimental part:
(§1) Cell viability assays: Cells were seeded in 96-well plates (2×10^3 cells/well) one day before the treatment. Cells were treated with varying concentrations of ERX-41 or ERX-11 analogs for 3-6 days. Then effects of ERX-41 or ERX-11 analogs on cell viability were measured in triplicate or sextuplicate with multiple biological replicates using the WST-1 (Promega), MTT as previously described^33 or CellTiter-Glo 2.0 (Promega) assays.
Lentiviral constructs cloning: LentiCRISPRv2 vector was used for CRSPR KO experiments. sgRNAs, which were chosen from human CRISPR knockout pooled library, were cloned into lentiCRISPRv2 vector^34. Human LIPA cDNA (GenBank: BC012287) or mouse LIPA cDNA (NM_021460) were clone into pWPI for over expression experiments. For TurboID experiment, the LIPA-TurboID sequence was cloned into pCW57-MCS1-2A-MCS2 vector. LentiCRISPR v2 was purchased from Addgene (Addgene #52961; //n2t.net/addgene:52961; RRID:Addgene_52961) (via Feng Zhang). pWPI was purchased from Addgene (Addgene #12254; //n2t.net/addgene:12254; RRID:Addgene_12254) (via Didier Trono). pCW57-MCS1-2A-MCS2 was purchased from Addgene (#71782) (via Adam Karpf). Human LIPA gene is referred as LIPA, while mouse LIPA gene is referred as mLIPA in this disclosure. […]
(In general: Cellular ATP, detected with luciferase, serves as a proxy for viable cell number.)

For experiment [3], the system named is p-PERK, IRE1α, eIF2α, CHOP in TNBC cells. Nature of the experiment: Western blotting of UPR proteins, TNBC cells. Format: cell-based, Human. As to conditions: 1 μM. As for the experimental part:
Western blotting: Whole cell lysates from breast cancer cells were prepared with 2× sample buffer (60 mM Tris-HCl, pH 6.8, 2% sodium dodecyl sulfate, 10% glycerol), and before loading mixed with loading buffer (5% 2-mercaptoethanol, 0.1% bromophenol blue) and boiled for denaturation, as previously described.^33 Proteins were separated by SDS-PAGE and subjected to Western analysis using antibodies. To detect nascent translated proteins, puromycin (final concentration 10 μg/mL) was added into cell plates 30 minutes before harvesting cells. Then samples were subjected to the Western blotting. Nascent proteins were detected by anti-puromycin antibody.
In general terms: In western blotting, separated proteins are transferred to a membrane and probed.

Experiment [4] has as its system SUM-159 cells. Nature of the experiment: CellTiter-Glo, SUM-159 WT cells (mCherry-RAMP4). Format: cell-based. As to conditions: Homo sapiens, SUM159; SUM-159 stably transfected mCherry-RAMP4, CellTiter-Glo. Here is the method: as §1
Experiment [5] relates to primary TNBC PDEs. Nature of the experiment: TNBC patient-derived explant (PDE) cultures ex vivo. Format: cell-based, human. The text has this:
TNBC patient-derived explant (PDE) studies: For PDE studies excised tissue samples were processed and cultured ex vivo as previously described. De-identified patient tumors were obtained from the UTSW Tissue Repository after institutional review board approval (STU-032011-187). Inclusion criteria included women with prior histologic confirmation of TNBC who were undergoing surgical extirpation or biopsy of their primary tumor. Prior treatment with chemotherapy and/or radiation was allowed. Exclusion criteria included concurrent or prior diagnosis of other malignancies or prior evidence of ERα+ or HER2+ breast cancer. All cases were reviewed by the UTSW Tissue Repository in advance and patients were consented for their tissue to be used for laboratory research. Only de-identified information was shared with the laboratory. None of the laboratory personnel had access to additional patient information. No attrition was noted. Briefly, fresh tumor samples were incubated on gelatin sponges in culture medium containing 10% FBS, followed by treatment with either vehicle or presence of 2.5 μM ERX-41 for 72 h. Representative tissues were fixed in 10% formalin at 4° C. overnight and subsequently processed into paraffin blocks. Sections were then processed for immunohistochemical analysis.
Immunohistochemistry: Immunohistochemical studies were performed as described previously.^7 For the immunohistochemical studies, tissue sections were blocked in background sniper (Biocare Medical, RS966L) followed by overnight incubation with primary antibodies anti-Ki-67 antibody (1:1000, GeneTex cat #GTX16667 RRID:AB_422351) (link), anti-CHOP antibody (1:2000, Sigma, Cat #HPA068416), anti-PERK (phospho T982) antibody (1:150, Abcam Cat #ab192591, RRID:AB_2728666) link)), anti-phospho-eIF2α (Ser51) (1:50, Cell signaling, cs3398) and subsequent secondary antibody incubation for 60 min at room temperature. Immunoreactivity was visualized by using the DAB substrate and counterstained with hematoxylin (Vector Lab, Inc.). […]

Experiment [6] deals with ERα-positive breast cancer cells (MCF-7, ZR-75). Nature of the experiment: MTT cell viability, ERα-positive breast cancer cells. Format: cell-based, Human. The settings on record: Homo sapiens, MCF-7 and ZR-75, read-out: anti-proliferative IC50. As for the experimental part:
as §1

The structures appear in SMILES notation.

For the molecule `CC(C)COc1cc(C(=O)Nc2ccc(C(=O)N[C@H]3CC[C@H](C)CC3)cc2OCC(C)C)ccc1NC(=O)c1ccc([N+](=O)[O-])c(OCCO)c1` [ERX-41], the “interaction with ERα LBD” value in experiment [1] is “does not interact with ERG LBD”. The IC50 in experiment [2] is roughly 4000 nM; in experiment [4] it was roughly 200 nM; in experiment [6], 100 to 125 nM. For the same molecule, the “induction of ER stress / UPR proteins” value in experiment [3] (p-PERK, IRE1α, eIF2α, CHOP) was “induces ER stress and downstream UPR pathways”. In addition, in experiment [3] (western), the “PERK activation and peIF2α, parental SUM-159” value is on record as “activates PERK”. Besides, the “UPR pathway markers in explants” value in experiment [5] (IHC, within 24 h after treatment) was “enhanced pPERK, CHOP (protein product of DDIT3 gene) and peIF2a staining”. Also, the “apoptosis (cleaved caspase 3 staining) of explants” value in experiment [5] (ex vivo) was “increased apoptosis”. In experiment [5] (ex vivo), the “proliferation (Ki67 staining) of explants” value was “decreased proliferation”.
